Experimental data from patent US20260062422A1 (Halda Therapeutics OpCo, Inc., priority 2022, published 2026).

How the values were obtained:
[1] = test system: T-Rex 293 cell line SC3 cells having increased expression of androgen receptor protein due to exposure to doxycycline; assay: Cellular growth inhibition, T-Rex 293 SC3 cells with doxycycline (androgen receptor induced), CellTiter-Glo; assay type: cell-based; details: T-Rex 293 SC3 cells with 10 ng/mL doxycycline (increased androgen receptor expression), 72 hours
How it was run: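 Luminescence read-out (CellTiter-Glo 2.0) after 72 h compound exposure; GI50 by four-parameter nonlinear regression, baseline set at zero luminescence. SC3 cells, a doxycycline-inducible wild-type AR clone of T-Rex 293, were cultured ±10 ng/mL doxycycline in charcoal-dextran FBS medium.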

[2] = test system: T-Rex 293 cell line SC cells lacking increased expression of progesterone receptor isoform B protein; assay: Cellular growth inhibition, T-Rex 293 SC cells without doxycycline, Example 45; assay type: cell-based; details: T-Rex 293 SC cells not exposed to doxycycline, 72 hours treatment, CellTiter-Glo 2.0

Structure (SMILES)	GI50 [1] [nM]	GI50 [2] [nM]
Cc1sc2c(c1C)C(c1ccc(CC3CC4(CCN(c5ccc(C(=O)N[C@H]6C(C)(C)[C@H](Oc7ccc(C#N)c(Cl)c7)C6(C)C)cn5)CC4)C3)cc1)=N[C@@H](Cc1ncco1)c1nnc(C)n1-2 [Compound I-143]	< 500	< 500
Cc1sc2c(c1C)C(c1ccc(N3CC(N4CCN(c5ncc(C(=O)N[C@H]6C(C)(C)[C@H](Oc7ccc(C#N)c(Cl)c7)C6(C)C)cn5)CC4)C3)cc1)=NC(Cc1ncco1)c1nnc(C)n1-2 (stereo partly shown) [Compound I-208]	< 500	< 500
